Values after ≈ are worked out from the molar mass of the structure shown. Active and inactive are the calls of the source. The rule behind the calls is not given here.
Assays:
[1] = system: Clostridioides difficile; test: Antibacterial activity against Clostridium difficile CD196 assessed as growth inhibition after 20 to 24 hrs; format: functional
[2] = system: Staphylococcus aureus; test: Antibacterial activity against Staphylococcus aureus 8325-4 assessed as growth inhibition after 20 to 24 hrs; format: functional
[3] = system: Bifidobacterium longum; test: Antibacterial activity against Bifidobacterium longum ATCC BAA-999 assessed as growth inhibition after 20 to 24 hrs; format: functional
[4] = system: Clostridium perfringens; test: Antibacterial activity against Clostridium perfringens ATCC 13124 assessed as growth inhibition after 20 to 24 hrs; format: functional
[5] = system: Escherichia coli; test: Antibacterial activity against Escherichia coli ATCC 700927 assessed as growth inhibition after 20 to 24 hrs; format: functional
[6] = system: Lacticaseibacillus casei; test: Antibacterial activity against Lactobacillus casei ATCC 334 assessed as growth inhibition after 20 to 24 hrs; format: functional
[7] = system: Bacteroides fragilis; test: Antibacterial activity against Bacteroides fragilis ATCC 25285 assessed as growth inhibition after 20 to 24 hrs; format: functional; conditions: NCTC 9343
[8] = system: Enterococcus faecalis; test: Antibacterial activity against Enterococcus faecalis ATCC 47077 assessed as growth inhibition after 20 to 24 hrs; format: functional
[9] = system: Streptococcus mutans; test: Antibacterial activity against Streptococcus mutans ATCC 700610 assessed as growth inhibition after 20 to 24 hrs; format: functional
[10] = system: Bacteroides thetaiotaomicron; test: Antibacterial activity against Bacteroides thetaiotaomicron ATCC 29148 assessed as growth inhibition after 20 to 24 hrs; format: functional
[11] = system: Limosilactobacillus reuteri; test: Antibacterial activity against Lactobacillus reuteri ATCC 23272 assessed as growth inhibition after 20 to 24 hrs; format: functional
[12] = system: FaDu; test: Cytotoxicity against human FADU cells assessed as concentration required to decrease cell viability incubated for 24 hrs followed by compound washout measured after 18 hrs by resazurin dye-based assay
[13] = system: Clostridioides difficile; test: Antibacterial activity against stationary phase of Clostridium difficile CD196 assessed as cell killing at 1 to 20 X MIC after 3 to 6 hrs; format: functional
[14] = Cytotoxicity against human HepG2 cells assessed as concentration required to decrease cell viability incubated for 24 hrs followed by compound washout measured after 18 hrs by resazurin dye-based assay; conditions: read-out: Activity
[15] = system: Clostridioides difficile; test: Bactericidal activity against Clostridium difficile CD196 after 20 to 24 hrs; format: functional; conditions: read-out: MBC99.9

Row | Compound | MIC [1] | MIC [2] | MIC [3] | MIC [4] | MIC [5] | MIC [6] | MIC [7] | MIC [8] | MIC [9] | MIC [10] | MIC [11] | Activity [12] | Activity [13] | MCC at 24 h [14] | MBC [15]
1 | Cc1cccc(/C=N/NC(=O)c2ccc(-c3ccccc3)cc2)c1 | > 50 µg/mL |  |  |  |  |  |  |  |  |  |  |  |  |  | 
2 | O=C(NNC(=O)c1ccc(-c2ccccc2)cc1)c1ccc(-c2ccccc2)cc1 | > 50 µg/mL |  |  |  |  |  |  |  |  |  |  |  |  |  | 
3 | COc1cccc(/C=N/NC(=O)c2ccc(C)cc2)c1O | 12.5 µg/mL (≈ 44 µM) | > 50 µg/mL | > 50 µg/mL | 6.25 µg/mL (≈ 22 µM) | > 50 µg/mL | > 50 µg/mL | > 50 µg/mL | > 50 µg/mL | 1.56 µg/mL (≈ 5.49 µM) | > 50 µg/mL | > 50 µg/mL |  |  |  | 
4 | Cc1cc(C(=O)N/N=C/c2c(O)ccc3ccccc23)c2cc(Br)ccc2n1 | > 50 µg/mL | > 50 µg/mL | > 50 µg/mL | 25 µg/mL (≈ 57.6 µM) | > 50 µg/mL | > 50 µg/mL | > 50 µg/mL | > 50 µg/mL | > 50 µg/mL | > 50 µg/mL | > 50 µg/mL |  |  |  | 
5 | O=C(CO)N/N=C/c1cccc2ccccc12 | > 50 µg/mL |  |  |  |  |  |  |  |  |  |  |  |  |  | 
6 | Cc1cc(C(=O)N/N=C/c2cccc3ccccc23)[nH]n1 | > 50 µg/mL | > 50 µg/mL | > 50 µg/mL | > 50 µg/mL | > 50 µg/mL | > 50 µg/mL | > 50 µg/mL | > 50 µg/mL | > 50 µg/mL | > 50 µg/mL | > 50 µg/mL |  |  |  | 
7 | COc1ccc2ccccc2c1/C=N/NC(=O)c1ccc(C)cc1 | > 50 µg/mL | > 50 µg/mL | > 50 µg/mL | > 50 µg/mL | > 50 µg/mL | > 50 µg/mL | > 50 µg/mL | > 50 µg/mL | > 50 µg/mL | > 50 µg/mL | > 50 µg/mL |  |  |  | 
8 | NC(=O)N/N=C/c1c(O)ccc2ccccc12 | > 50 µg/mL |  |  |  |  |  |  |  |  |  |  |  |  |  | 
9 | COc1cccc(/C=N/NC(=O)c2cc(C)nc3ccc(Br)cc23)c1O | 6.25 µg/mL (≈ 15.1 µM) | > 50 µg/mL | > 50 µg/mL | 6.25 µg/mL (≈ 15.1 µM) | > 50 µg/mL | > 50 µg/mL | > 50 µg/mL | > 50 µg/mL | > 50 µg/mL | > 50 µg/mL | > 50 µg/mL |  |  |  | 
10 | Cc1ccc(C(=O)N/N=C/c2cccc3ccccc23)cc1 | > 50 µg/mL | > 50 µg/mL | > 50 µg/mL | > 50 µg/mL | > 50 µg/mL | > 50 µg/mL | > 50 µg/mL | > 50 µg/mL | > 50 µg/mL | > 50 µg/mL | > 50 µg/mL |  |  |  | 
11 | COc1ccc2ccccc2c1/C=N/N(C)C(=O)c1ccc(C)cc1 | > 50 µg/mL | > 50 µg/mL | > 50 µg/mL | > 50 µg/mL | > 50 µg/mL | > 50 µg/mL | > 50 µg/mL | > 50 µg/mL | > 50 µg/mL | > 50 µg/mL | > 50 µg/mL |  |  |  | 
12 | O=C(NCc1ccccc1)c1ccc(-c2ccccc2)cc1 | > 50 µg/mL |  |  |  |  |  |  |  |  |  |  |  |  |  | 
13 | Cc1ccc(C(=O)N/N=C/c2c(O)ccc3ccccc23)cc1 | 6.25 µg/mL (≈ 20.5 µM) | > 50 µg/mL | > 50 µg/mL | 1.56 µg/mL (≈ 5.13 µM) | > 50 µg/mL | > 50 µg/mL | 12.5 µg/mL (≈ 41.1 µM) | > 50 µg/mL | > 50 µg/mL | 25 µg/mL (≈ 82.1 µM) | > 50 µg/mL | > 100 µg/mL | Active | > 100 µg/mL | 6.25 µg/mL (≈ 20.5 µM)
14 | Cc1ccc(C(=O)N(C)/N=C/c2c(O)ccc3ccccc23)cc1 | > 50 µg/mL | > 50 µg/mL | > 50 µg/mL | > 50 µg/mL | > 50 µg/mL | > 50 µg/mL | > 50 µg/mL | > 50 µg/mL | > 50 µg/mL | > 50 µg/mL | > 50 µg/mL |  |  |  | 
15 | O=C(N/N=C/c1c(O)ccc2ccccc12)c1ccc(Cl)cc1 | 6.25 µg/mL (≈ 19.2 µM) | > 50 µg/mL | > 50 µg/mL | ≤ 0.78 µg/mL | > 50 µg/mL | > 50 µg/mL | 12.5 µg/mL (≈ 38.5 µM) | > 50 µg/mL | > 50 µg/mL | 12.5 µg/mL (≈ 38.5 µM) | > 50 µg/mL |  |  |  | 
16 | Cc1ncc([N+](=O)[O-])n1CCO [METRONIDAZOLE] | 1.56 µg/mL (≈ 9.11 µM) | > 50 µg/mL | ≤ 0.78 µg/mL | 3.13 µg/mL (≈ 18.3 µM) | > 50 µg/mL | > 50 µg/mL | ≤ 0.78 µg/mL | > 50 µg/mL | > 50 µg/mL | ≤ 0.78 µg/mL | > 50 µg/mL | > 200 µg/mL | inactive | > 200 µg/mL | 
17 | O/N=C/c1c(O)ccc2ccccc12 | > 50 µg/mL |  |  |  |  |  |  |  |  |  |  |  |  |  | 

Source: ChEMBL document CHEMBL3102722, “Diarylacylhydrazones: Clostridium-selective antibacterials with activity against stationary-phase cells” (Bioorg Med Chem Lett, 2014)
